Data taken from patent US8993595B2, “Macrocyclic serine protease inhibitors” (priority 2009, dated 2015).

Columns and labels:
clinical = conditions: human, in vivo; for Cmax / Tmax: 400 mg per day; for half-life: T1/2, 400 mg per day
human UGT1A1 = target: T1, human UGT1A1 (Homo sapiens, UniProt P22309); assay: UGT1A1 inhibition assay; type: in vitro ADME; conditions: human liver microsomes, bilirubin as substrate
T1 construct: examined using human liver microsomes and bilirubin as substrate; from tissue; host or cells: human liver microsomes
T1 sequence (P22309 26-533): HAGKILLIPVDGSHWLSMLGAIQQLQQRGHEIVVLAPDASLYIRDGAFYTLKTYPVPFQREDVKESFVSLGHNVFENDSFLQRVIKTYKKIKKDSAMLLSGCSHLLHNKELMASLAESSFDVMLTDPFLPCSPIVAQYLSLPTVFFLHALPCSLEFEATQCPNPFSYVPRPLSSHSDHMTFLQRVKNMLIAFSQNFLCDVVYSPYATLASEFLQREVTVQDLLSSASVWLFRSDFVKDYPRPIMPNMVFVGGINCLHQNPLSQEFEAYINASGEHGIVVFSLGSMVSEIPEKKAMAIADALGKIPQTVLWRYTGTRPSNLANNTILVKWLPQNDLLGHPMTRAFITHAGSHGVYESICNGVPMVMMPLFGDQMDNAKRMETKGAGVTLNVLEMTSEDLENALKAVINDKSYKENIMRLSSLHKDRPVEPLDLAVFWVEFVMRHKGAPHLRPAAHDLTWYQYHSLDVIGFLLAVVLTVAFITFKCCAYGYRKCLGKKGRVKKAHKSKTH
Protocol: Compound 52 was incubated with human CYP450 cDNA-expressed isoenzymes according to the protocol (BD Bioscience). For CYP2C9, a luminogenic substrate was used with the P450-Glo™ kit. In addition, the effect of the compound on CYP2C9-mediated diclofenac metabolism was measured by LC-UV. The potential inhibitory effect of the compound on human UGT1A1 was examined using human liver microsomes and bilirubin as substrate. The metabolites (mono- and di-glucuronidated bilirubin) were measured by LC-UV.

in vitro = type: cell-based; conditions: 48 hrs, intracellular ATP
Protocol: Freshly isolated hepatocytes were incubated with various concentrations of […] for 48 hrs. Intracellular ATP content was measured (CellTiter-Glo luminescent cell viability assay) to determine cell cytotoxicity (CC50).

[1] = test system: H1a-luc cell line (genotype 1a replicon, unselected); assay: Extent of resistance after selection, H1a-luc; type: cell-based, HCV; conditions: selecting conc. 0 nM
Protocol: Replicon cells (genotype 1a or 1b) were treated with various concentrations of compound 52 in the presence of G418. Treatment-emergent genotypic changes were identified by population sequencing of NS3 (both protease and helicase regions). The activity of compound 52 and other compounds was evaluated by NS5A western blot after selection or luciferase assay during and after selection.

Work on `COc1ccc2c(O[C@H]3CCN4C(=O)N(C)CCCC/C=C\[C@@H]5C[C@@]5(C(=O)NS(=O)(=O)C5(C)CC5)NC(=O)[C@@H]4C3)cc(-c3nc(C(F)(F)F)cs3)nc2c1C` [Compound 52, 1-methyl-cyclopropanesulfonic acid{(Z)-(1S,4R,6S,18S)-18-[7-methoxy-8-methyl-2-(4-trifluoromethyl-thiazol-2-yl)-quinolin-4-yloxy]-13-methyl-2,14-dioxo-3,13,15-triaza-tricyclo[13.4.0.0*4,6*]nonadec-7-ene-4-carbonyl}amide] yielded a Cmax (clinical; PK Day 1) of 1150 ± 381 ng/mL, a Cmax (clinical; PK Day 3) of 1370 ± 345 ng/mL and a half-life (clinical; PK Day 1) of 12 ± 2 h. It also gave a half-life (clinical; PK Day 3) of 31 ± 8 h, a Tmax (clinical; PK Day 1) of 3 h and a Tmax (clinical; PK Day 3) of 3.5 h. For the same compound, the IC50 (human UGT1A1) was ≥ 10 µM, the CC50 (in vitro; fresh human hepatocytes) was > 10 µM and the CC50 (in vitro; fresh monkey hepatocytes) was > 10 µM. The CC50 (in vitro; fresh mouse hepatocytes) was > 10 µM, the CC50 (in vitro; fresh rat hepatocytes) was > 10 µM and the Fold-Change [1] was 1.
